A word on the DC50: it is the midpoint of the concentration-degradation curve. High values mean degradation only at high concentration, low ones degradation at low concentration. Broadly, the Dmax is the largest share of the target that was removed.

For the assay, the target named is T1, BRM (Homo sapiens, UniProt P51531).
T1 construct: Western Blot Screen of BRM Degradation in SW1573 Cells; endogenous in cells; host or cells: SW1573 cells
Kind of assay: BRM degradation (Dmax and DC50) in SW1573 cells, Western blot screen / In-Cell Western screen. It counts as cell-based. To be noted: overnight (18-20 hours) treatment; for Dmax: read-out: Dmax (%)** (% degraded). The essentials:
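SW1573 cells were treated with compound for 18–20 h (final 0.1% DMSO). BRM was quantified either by Western blot of RIPA lysates or by fixed-cell In-Cell Western (LI-COR, 800/680 nm), each normalised to alpha-tubulin, giving Dmax and DC50.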
In general terms: Immunoblotting shows a protein as a band on a membrane.

T1 sequence (P51531 whole entry): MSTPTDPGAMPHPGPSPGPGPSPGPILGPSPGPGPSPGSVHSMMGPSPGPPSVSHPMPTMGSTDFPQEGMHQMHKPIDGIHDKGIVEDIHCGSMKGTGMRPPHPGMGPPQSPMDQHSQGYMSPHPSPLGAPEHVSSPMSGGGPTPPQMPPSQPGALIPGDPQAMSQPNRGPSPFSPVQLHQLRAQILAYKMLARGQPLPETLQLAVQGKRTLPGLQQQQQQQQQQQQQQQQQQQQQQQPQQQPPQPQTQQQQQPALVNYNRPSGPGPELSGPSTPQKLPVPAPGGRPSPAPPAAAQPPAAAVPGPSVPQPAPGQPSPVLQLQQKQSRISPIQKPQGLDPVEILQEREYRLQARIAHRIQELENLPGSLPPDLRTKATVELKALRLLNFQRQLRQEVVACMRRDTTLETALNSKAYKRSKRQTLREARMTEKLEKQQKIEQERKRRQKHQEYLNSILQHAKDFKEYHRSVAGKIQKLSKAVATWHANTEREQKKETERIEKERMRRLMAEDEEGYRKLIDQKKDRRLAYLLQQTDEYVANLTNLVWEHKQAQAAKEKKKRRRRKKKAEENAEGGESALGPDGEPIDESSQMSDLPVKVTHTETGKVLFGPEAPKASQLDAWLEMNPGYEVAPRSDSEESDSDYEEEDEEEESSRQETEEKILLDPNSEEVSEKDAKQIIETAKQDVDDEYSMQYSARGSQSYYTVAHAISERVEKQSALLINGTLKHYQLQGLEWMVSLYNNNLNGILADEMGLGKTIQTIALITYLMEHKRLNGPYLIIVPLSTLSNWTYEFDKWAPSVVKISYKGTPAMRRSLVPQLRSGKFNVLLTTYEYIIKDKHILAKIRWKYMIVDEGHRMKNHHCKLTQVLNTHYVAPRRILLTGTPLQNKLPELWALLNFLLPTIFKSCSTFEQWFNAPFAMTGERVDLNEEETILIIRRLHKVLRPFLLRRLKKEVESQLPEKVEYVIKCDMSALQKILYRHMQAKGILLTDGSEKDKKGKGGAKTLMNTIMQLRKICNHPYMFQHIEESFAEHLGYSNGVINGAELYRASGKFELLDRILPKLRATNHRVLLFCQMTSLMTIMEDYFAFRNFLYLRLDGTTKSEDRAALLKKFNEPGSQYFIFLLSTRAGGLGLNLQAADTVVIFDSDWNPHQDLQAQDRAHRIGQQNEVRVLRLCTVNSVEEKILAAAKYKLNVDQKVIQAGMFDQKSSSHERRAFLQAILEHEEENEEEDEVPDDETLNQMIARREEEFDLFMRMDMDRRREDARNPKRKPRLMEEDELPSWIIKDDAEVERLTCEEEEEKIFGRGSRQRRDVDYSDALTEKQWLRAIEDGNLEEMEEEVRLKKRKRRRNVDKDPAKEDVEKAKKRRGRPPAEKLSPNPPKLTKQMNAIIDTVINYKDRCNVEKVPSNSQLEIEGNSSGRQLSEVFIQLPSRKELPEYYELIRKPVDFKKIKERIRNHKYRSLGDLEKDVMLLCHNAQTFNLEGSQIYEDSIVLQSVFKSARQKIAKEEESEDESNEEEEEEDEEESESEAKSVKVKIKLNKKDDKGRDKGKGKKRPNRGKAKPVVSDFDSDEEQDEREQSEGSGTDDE

As for `Cc1ncsc1-c1ccc([C@H](C)NC(=O)[C@@H]2C[C@@H](O)CN2C(=O)[C@@H](c2cc(N3CCC(CN4CCC5(CC4)CC(N4CCO[C@H](C(C)(C)N6C7CCC6CN(c6cc(-c8ccccc8O)nnc6N)C7)C4)C5)CC3)no2)C(C)C)cc1` [Compound 94, (2S,4R)-1-[(2R)-2-{3-[4-({2-[(2S)-2-(2-{3-[3-amino-6-(2-hydroxyphenyl)pyridazin-4-yl]-3,8-diazabicyclo[3.2.1]octan-8-yl}propan-2-yl)morpholin-4-yl]-7-azaspiro[3.5]nonan-7-yl}methyl)piperidin-1-yl]-1,2-oxazol-5-yl}-3-methylbutanoyl]-4-hydroxy-N-[(1S)-1-[4-(4-methyl-1,3-thiazol-5-yl)phenyl]ethyl]pyrrolidine-2-carboxamide], the DC50 was in the range of 2.5 to 10 nM and the Dmax was greater than 75%.

`Cc1ncsc1-c1ccc([C@H](C)NC(=O)[C@@H]2C[C@@H](O)CN2C(=O)[C@@H](c2cc(N3CCC(CN4CCC5(CC4)CC(N4CCO[C@@H](C(C)(C)N6C7CCC6CN(c6cc(-c8ccccc8O)nnc6N)C7)C4)C5)CC3)no2)C(C)C)cc1` [Compound 95, (2S,4R)-1-[(2R)-2-{3-[4-({2-[(2R)-2-(2-{3-[3-amino-6-(2-hydroxyphenyl)pyridazin-4-yl]-3,8-diazabicyclo[3.2.1]octan-8-yl}propan-2-yl)morpholin-4-yl]-7-azaspiro[3.5]nonan-7-yl}methyl)piperidin-1-yl]-1,2-oxazol-5-yl}-3-methylbutanoyl]-4-hydroxy-N-[(1S)-1-[4-(4-methyl-1,3-thiazol-5-yl)phenyl]ethyl]pyrrolidine-2-carboxamide]: the DC50 is 2.5 to 10 nM and the Dmax was greater than 75%.

For the compound `Cc1ncsc1-c1ccc([C@H](C)NC(=O)[C@@H]2C[C@@H](O)CN2C(=O)[C@@H](c2cc(N3CCC(CN4CCC5(CC4)CC(N4CCO[C@H]([C@H](C)n6cc(C#Cc7cc(-c8ccccc8O)nnc7N)cn6)C4)C5)CC3)no2)C(C)C)cc1` [Compound 96, (2S,4R)-1-[(2R)-2-{3-[4-({2-[(2S)-2-[(1S)-1-(4-{2-[3-amino-6-(2-hydroxyphenyl)pyridazin-4-yl]ethynyl}-1H-pyrazol-1-yl)ethyl]morpholin-4-yl]-7-azaspiro[3.5]nonan-7-yl}methyl)piperidin-1-yl]-1,2-oxazol-5-yl}-3-methylbutanoyl]-4-hydroxy-N-[(1S)-1-[4-(4-methyl-1,3-thiazol-5-yl)phenyl]ethyl]pyrrolidine-2-carboxamide], the DC50 was less than 2.5 nM and the greatest degradation seen (Dmax) is greater than 75%.

For `Cc1ncsc1-c1ccc([C@H](C)NC(=O)[C@@H]2C[C@@H](O)CN2C(=O)[C@@H](c2cc(N3CCC(CN4CCC5(CC4)CC(N4CCO[C@@H]([C@H](C)n6cc(C#Cc7cc(-c8ccccc8O)nnc7N)cn6)C4)C5)CC3)no2)C(C)C)cc1` [Compound 97, (2S,4R)-1-[(2R)-2-{3-[4-({2-[(2R)-2-[(1S)-1-(4-{2-[3-amino-6-(2-hydroxyphenyl)pyridazin-4-yl]ethynyl}-1H-pyrazol-1-yl)ethyl]morpholin-4-yl]-7-azaspiro[3.5]nonan-7-yl}methyl)piperidin-1-yl]-1,2-oxazol-5-yl}-3-methylbutanoyl]-4-hydroxy-N-[(1S)-1-[4-(4-methyl-1,3-thiazol-5-yl)phenyl]ethyl]pyrrolidine-2-carboxamide], the DC50 is less than 2.5 nM and the maximal degradation (Dmax) was greater than 75%.

With `Cc1ncsc1-c1ccc([C@H](C)NC(=O)[C@@H]2C[C@@H](O)CN2C(=O)[C@@H](c2cc(N3CCC(CN4CCC5(CC4)CC(N4CCO[C@H]([C@@H](C)n6cc(C#Cc7cc(-c8ccccc8O)nnc7N)cn6)C4)C5)CC3)no2)C(C)C)cc1` [Compound 98, (2S,4R)-1-[(2R)-2-{3-[4-({2-[(2S)-2-[(1R)-1-(4-{2-[3-amino-6-(2-hydroxyphenyl)pyridazin-4-yl]ethynyl}-1H-pyrazol-1-yl)ethyl]morpholin-4-yl]-7-azaspiro[3.5]nonan-7-yl}methyl)piperidin-1-yl]-1,2-oxazol-5-yl}-3-methylbutanoyl]-4-hydroxy-N-[(1S)-1-[4-(4-methyl-1,3-thiazol-5-yl)phenyl]ethyl]pyrrolidine-2-carboxamide], the 50% degradation concentration (DC50) was less than 2.5 nM and the Dmax was greater than 75%.

On to `Cc1ncsc1-c1ccc([C@H](C)NC(=O)[C@@H]2C[C@@H](O)CN2C(=O)[C@@H](c2cc(N3CCC(CN4CCC5(CC4)CC(N4CCO[C@@H]([C@@H](C)n6cc(C#Cc7cc(-c8ccccc8O)nnc7N)cn6)C4)C5)CC3)no2)C(C)C)cc1` [Compound 99, (2S,4R)-1-[(2R)-2-{3-[4-({2-[(2R)-2-[(1R)-1-(4-{2-[3-amino-6-(2-hydroxyphenyl)pyridazin-4-yl]ethynyl}-1H-pyrazol-1-yl)ethyl]morpholin-4-yl]-7-azaspiro[3.5]nonan-7-yl}methyl)piperidin-1-yl]-1,2-oxazol-5-yl}-3-methylbutanoyl]-4-hydroxy-N-[(1S)-1-[4-(4-methyl-1,3-thiazol-5-yl)phenyl]ethyl]pyrrolidine-2-carboxamide], for which the half-maximal degradation concentration (DC50) is less than 2.5 nM and the Dmax is greater than 75%.

As to `Cc1ncsc1-c1ccc([C@H](C)NC(=O)[C@@H]2C[C@@H](O)CN2C(=O)[C@@H](c2cc(N3CCC(CN4CCC(O[C@H]5C[C@H](N6CCC(C(C)n7ncc(-c8cc(-c9ccccc9O)nnc8N)c7F)CC6)C5)CC4)CC3)no2)C(C)C)cc1` (stereo partly drawn) [Compound 100, (2S,4R)-4-hydroxy-N-[(1S)-1-[4-(4-methyl-1,3-thiazol-5-yl)phenyl]ethyl]-1-[(2R)-3-methyl-2-{3-[4-({4-[(1r,3r)-3-[4-(1-{4-[3-amino-6-(2-hydroxyphenyl)pyridazin-4-yl]-5-fluoro-1H-pyrazol-1-yl}ethyl)piperidin-1-yl]cyclobutoxy]piperidin-1-yl}methyl)piperidin-1-yl]-1,2-oxazol-5-yl}butanoyl]pyrrolidine-2-carboxamide], the 50% degradation concentration (DC50) is less than 2.5 nM and the maximal degradation (Dmax) is greater than 75%.

Take `Cc1ncsc1-c1ccc([C@H](C)NC(=O)[C@@H]2C[C@@H](O)CN2C(=O)[C@@H](c2cc(N3CCC(CN4CC[C@@H](OC(=O)N5CCN(c6cc(-c7ccccc7O)nnc6N)CC5)[C@@H](F)C4)CC3)no2)C(C)C)cc1` [Compound 101, (3S,4R)-3-fluoro-1-[(1-{5-[(2R)-1-[(2S,4R)-4-hydroxy-2-{[(1S)-1-[4-(4-methyl-1,3-thiazol-5-yl)phenyl]ethyl]carbamoyl}pyrrolidin-1-yl]-3-methyl-1-oxobutan-2-yl]-1,2-oxazol-3-yl}piperidin-4-yl)methyl]piperidin-4-yl 4-[3-amino-6-(2-hydroxyphenyl)pyridazin-4-yl]piperazine-1-carboxylate]: the 50% degradation concentration (DC50) was less than 2.5 nM and the greatest degradation seen (Dmax) was greater than 75%.

In the case of `Cc1ncsc1-c1ccc([C@H](C)NC(=O)[C@@H]2C[C@@H](O)CN2C(=O)[C@@H](c2cc(N3CCC(CN4CC[C@@H](OC(=O)N5CCN(c6cc(-c7ccccc7O)nnc6N)CC5)[C@H](F)C4)CC3)no2)C(C)C)cc1` [Compound 102, (3R,4R)-3-fluoro-1-[(1-{5-[(2R)-1-[(2S,4R)-4-hydroxy-2-{[(1S)-1-[4-(4-methyl-1,3-thiazol-5-yl)phenyl]ethyl]carbamoyl}pyrrolidin-1-yl]-3-methyl-1-oxobutan-2-yl]-1,2-oxazol-3-yl}piperidin-4-yl)methyl]piperidin-4-yl 4-[3-amino-6-(2-hydroxyphenyl)pyridazin-4-yl]piperazine-1-carboxylate], the half-maximal degradation concentration (DC50) was in the range of 2.5 to 10 nM and the greatest degradation seen (Dmax) is greater than 75%.

For the compound `Cc1ncsc1-c1ccc([C@H](C)NC(=O)[C@@H]2C[C@@H](O)CN2C(=O)[C@@H](c2cc(N3CCC(CN4CC[C@H](OC(=O)N5CCN(c6cc(-c7ccccc7O)nnc6N)CC5)[C@H](F)C4)CC3)no2)C(C)C)cc1` [Compound 103, (3R,4S)-3-fluoro-1-[(1-{5-[(2R)-1-[(2S,4R)-4-hydroxy-2-{[(1S)-1-[4-(4-methyl-1,3-thiazol-5-yl)phenyl]ethyl]carbamoyl}pyrrolidin-1-yl]-3-methyl-1-oxobutan-2-yl]-1,2-oxazol-3-yl}piperidin-4-yl)methyl]piperidin-4-yl 4-[3-amino-6-(2-hydroxyphenyl)pyridazin-4-yl]piperazine-1-carboxylate], the 50% degradation concentration (DC50) is less than 2.5 nM and the Dmax is greater than 75%.

Take `Cc1ncsc1-c1ccc([C@H](C)NC(=O)[C@@H]2C[C@@H](O)CN2C(=O)[C@@H](c2cc(N3CCC(CN4CC[C@H](OC(=O)N5CCN(c6cc(-c7ccccc7O)nnc6N)CC5)[C@@H](F)C4)CC3)no2)C(C)C)cc1` [Compound 104, (3S,4S)-3-fluoro-1-[(1-{5-[(2R)-1-[(2S,4R)-4-hydroxy-2-{[(1S)-1-[4-(4-methyl-1,3-thiazol-5-yl)phenyl]ethyl]carbamoyl}pyrrolidin-1-yl]-3-methyl-1-oxobutan-2-yl]-1,2-oxazol-3-yl}piperidin-4-yl)methyl]piperidin-4-yl 4-[3-amino-6-(2-hydroxyphenyl)pyridazin-4-yl]piperazine-1-carboxylate]: the 50% degradation concentration (DC50) was less than 2.5 nM and the maximal degradation (Dmax) is greater than 75%.

Regarding `Cc1ncsc1-c1ccc([C@H](C)NC(=O)[C@@H]2C[C@@H](O)CN2C(=O)[C@@H](c2cc(N3CCC(CN4CCC(O[C@H]5C[C@H](N6CCC(Cc7cnn(-c8cc(-c9ccccc9O)nnc8N)c7)CC6)C5)CC4)CC3)no2)C(C)C)cc1` [Compound 105, (2S,4R)-4-hydroxy-N-[(1S)-1-[4-(4-methyl-1,3-thiazol-5-yl)phenyl]ethyl]-1-[(2R)-3-methyl-2-{3-[4-({4-[(1r,3r)-3-[4-({1-[3-amino-6-(2-hydroxyphenyl)pyridazin-4-yl]-1H-pyrazol-4-yl}methyl)piperidin-1-yl]cyclobutoxy]piperidin-1-yl}methyl)piperidin-1-yl]-1,2-oxazol-5-yl}butanoyl]pyrrolidine-2-carboxamide], the DC50 was less than 2.5 nM and the Dmax is greater than 75%.

The values above are taken from US20250059198A1, “BRM DEGRADING COMPOUNDS AND ASSOCIATED METHODS OF USE” (Arvinas Operations, Inc., priority 2021, published 2025).
